Laboratory results taken from patent publication US6441042B1 (dated 2002).

| SMILES | melting point |
| --- | --- |
| CCC[C@H](CC(=O)NO)C(=O)N[C@H](C(=O)NC)C(C)(C)C | 200 °C |
| CCCC[C@H](CC(=O)NO)C(=O)N[C@H](C(=O)N(C)C)C(C)(C)C | 165 to 166 °C |
